From patent US8623857B2, “N-phenyl imidazole carboxamide inhibitors of 3-phosphoinositide-dependent protein kinase-1” (Merck Sharp & Dohme Corp., priority 2010, dated 2014) come the findings set out here.

A word on the IC50: it is the concentration needed to halve the response being measured.

Molecules are shown by their SMILES.

For the first assay, the target named is T1, recombinant human PDK1 (Homo sapiens, UniProt O15530).
T1 construct: containing amino acids 51-556 of the human PDK1 enzyme; made in house; host or cells: Sf9 insect cells
T1 sequence (O15530 51-556): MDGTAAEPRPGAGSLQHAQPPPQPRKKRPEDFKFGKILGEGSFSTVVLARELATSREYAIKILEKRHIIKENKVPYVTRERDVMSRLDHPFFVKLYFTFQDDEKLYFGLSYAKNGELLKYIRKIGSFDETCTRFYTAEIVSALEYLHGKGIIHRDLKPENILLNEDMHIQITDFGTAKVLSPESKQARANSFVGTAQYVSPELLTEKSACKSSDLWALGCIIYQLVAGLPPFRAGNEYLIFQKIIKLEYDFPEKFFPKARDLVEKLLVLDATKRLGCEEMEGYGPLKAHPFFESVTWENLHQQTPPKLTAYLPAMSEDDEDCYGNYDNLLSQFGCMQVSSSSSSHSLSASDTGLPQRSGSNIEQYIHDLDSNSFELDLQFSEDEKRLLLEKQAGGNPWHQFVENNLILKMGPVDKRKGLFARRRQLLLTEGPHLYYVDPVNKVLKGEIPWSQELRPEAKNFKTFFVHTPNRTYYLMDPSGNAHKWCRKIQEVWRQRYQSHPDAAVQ
The experiment in a line: PDK1 IMAP fluorescence polarization assay (inhibition of peptide substrate phosphorylation). The conditions noted are these: Table 6; 10 nM PDK1 enzyme, 100 nM peptide substrate, 100 nM PIFtide, 2.5 uM ATP, 1.5 hours. The assay is classed as biochemical. (In general: In fluorescence polarisation assays a small probe gives low polarisation when free and higher when bound to something large.)
For the compound `NCC1CCN(c2c(F)cccc2NC(=O)c2nc(-c3cc(NCc4ccccc4)nc(N)n3)c[nH]2)CC1` [Compound 69, N-[2-[4-(aminomethyl)-1-piperidinyl]-3-fluorophenyl]-4-[2-amino-6-[(phenylmethyl)amino]-4-pyrimidinyl]-1H-imidazole-2-carboxamide], the IC50 lay within 1 to 50 nM. For the compound `NCC1CCN(c2c(F)cccc2NC(=O)c2nc(-c3ccnc(NC4CC4)c3)c[nH]2)CC1` [Compound 42, N-[2-[4-(aminomethyl)-1-piperidinyl]-3-fluorophenyl]-4-[2-(cyclopropylamino)-4-pyridinyl]-1H-imidazole-2-carboxamide], the IC50 was 51 to 250 nM. On the same count and under the same terms, with `CNCC1CCN(c2c(F)cccc2NC(=O)c2nc(-c3ccnc(C)c3)c[nH]2)CC1` [Compound 57, N-[3-fluoro-2-[4-[(methylamino)methyl]-1-piperidinyl]phenyl]-4-(2-methyl-4-pyridinyl)-1H-imidazole-2-carboxamide] the figure was 251 to 1000 nM; with `CN(C)c1cc(-c2c[nH]c(C(=O)Nc3cccc(F)c3N3CCC(CN)CC3)n2)ccn1` [Compound 36, N-[2-[4-(aminomethyl)-1-piperidinyl]-3-fluorophenyl]-4-[2-(dimethylamino)-4-pyridinyl]-1H-imidazole-2-carboxamide], 251 to 1000 nM.

Take `NCC1CCN(c2c(F)cccc2NC(=O)c2nc(-c3ccnc(NCc4ccccc4)c3)c[nH]2)CC1` [Compound 35, N-[2-[4-(aminomethyl)-1-piperidinyl]-3-fluorophenyl]-4-[2-[(phenylmethyl)amino]-4-pyridinyl]-1H-imidazole-2-carboxamide]: the IC50 fell in the range of 1 to 50 nM. In the case of `Cc1cc(-c2c[nH]c(C(=O)Nc3cccc(F)c3N3CCC(C(=O)N[C@H](C)c4ccccc4)CC3)n2)ccn1` [Compound 65, 1-[2-fluoro-6-[[[4-(2-methyl-4-pyridinyl)-1H-imidazol-2-yl]carbonyl]amino]phenyl]-N-(1(R)-phenylethyl)-4-piperidinecarboxamide], the IC50 lay within 1000 to 5000 nM. On the same count and under the same terms, the result for `CNCCCCNC(=O)C1CCN(c2c(F)cccc2NC(=O)c2nc(-c3ccnc(C)c3)c[nH]2)CC1` [Compound 85, 1-[2-fluoro-6-[[[4-(2-methyl-4-pyridinyl)-1H-imidazol-2-yl]carbonyl]amino]phenyl]-N-[4-(methylamino)butyl]-4-piperidinecarboxamide] reads 251 to 1000 nM; that for `N[C@@H]1CCCN(c2c(F)cccc2NC(=O)c2nc(C3=CCOCC3)c[nH]2)C1` [Compound 22, N-[2-(3(R)-amino-1-piperidinyl)-3-fluorophenyl]-4-(3,6-dihydro-2h-pyran-4-yl)-1H-imidazole-2-carboxamide], 251 to 1000 nM.

Regarding `Cc1cc(-c2c[nH]c(C(=O)Nc3cccc(F)c3N3CCC(CN)CC3)n2)ccn1` [Compound 18, N-[2-[4-(aminomethyl)-1-piperidinyl]-3-fluorophenyl]-4-(2-methyl-4-pyridinyl)-1H-imidazole-2-carboxamide], the IC50 was 1 to 50 nM. The same measure, in the same setting: with `COC(=O)c1cccc(-c2c[nH]c(C(=O)Nc3cccc(F)c3N3CCC(CN)CC3)n2)c1` [Compound 56, methyl 3-[2-[[[2-[4-(aminomethyl)-1-piperidinyl]-3-fluorophenyl]amino]carbonyl]-1H-imidazol-4-yl]benzoate] the figure was 51 to 250 nM; with `NCC1CCN(c2c(F)cccc2NC(=O)c2nc(-c3cncnc3)c[nH]2)CC1` [Compound 63, N-[2-[4-(aminomethyl)-1-piperidinyl]-3-fluorophenyl]-4-(5-pyrimidinyl)-1H-imidazole-2-carboxamide], 1000 to 5000 nM.

With `N[C@@H]1CCCN(c2c(F)cccc2NC(=O)c2nc(-c3ccnc(CO)c3)c[nH]2)C1` [Compound 26, N-[2-(3(R)-amino-1-piperidinyl)-3-fluorophenyl]-4-[2-(hydroxymethyl)-4-pyridinyl]-1H-imidazole-2-carboxamide], the IC50 was in the range of 1 to 50 nM. Regarding `NCC1CCN(c2c(F)cccc2NC(=O)c2nc(-c3cc(N[C@H](CO)c4ccccc4)nc(N)n3)c[nH]2)CC1` [Compound 77, 4-[2-amino-6-[(2-hydroxy-1(S)-phenylethyl)amino]-4-pyrimidinyl]-N-[2-[4-(aminomethyl)-1-piperidinyl]-3-fluorophenyl]-1H-imidazole-2-carboxamide], the IC50 lay within 1 to 50 nM.

As for `Cc1cc(-c2c[nH]c(C(=O)Nc3cccc(F)c3N3CCC(C(=O)N4CCOC(CN)C4)CC3)n2)ccn1` (centres unmarked) [Compound 89, N-[2-[4-[[2-(aminomethyl)-4-morpholinyl]carbonyl]-1-piperidinyl]-3-fluorophenyl]-4-(2-methyl-4-pyridinyl)-1H-imidazole-2-carboxamide], the IC50 was 51 to 250 nM. The same measure, in the same setting: the result for `Cc1cc(-c2c[nH]c(C(=O)Nc3cccc(F)c3N3CCC(CN)CC3)n2)nc(N)n1` [Compound 47, N-[2-[4-(aminomethyl)-1-piperidinyl]-3-fluorophenyl]-4-(2-amino-6-methyl-4-pyrimidinyl)-1H-imidazole-2-carboxamide] reads 1 to 50 nM; that for `N[C@@H]1CCCN(c2c(F)cccc2NC(=O)c2nc(-c3cn[nH]c3)c[nH]2)C1` [Compound 11, N-[2-(3(R)-amino-1-piperidinyl)-3-fluorophenyl]-4-(1H-pyrazol-4-yl)-1H-imidazole-2-carboxamide], 51 to 250 nM; that for `COc1cc(-c2c[nH]c(C(=O)Nc3cccc(F)c3N3CCC[C@@H](N)C3)n2)ccn1` [Compound 21, N-[2-(3(R)-amino-1-piperidinyl)-3-fluorophenyl]-4-(2-methoxy-4-pyridinyl)-1H-imidazole-2-carboxamide], 51 to 250 nM. On the same count and under the same terms, the result for `CCNCCNC(=O)C1CCN(c2c(F)cccc2NC(=O)c2nc(-c3ccnc(C)c3)c[nH]2)CC1` [Compound 86, N-[2-(ethylamino)ethyl]-1-[2-fluoro-6-[[[4-(2-methyl-4-pyridinyl)-1H-imidazol-2-yl]carbonyl]amino]phenyl]-4-piperidinecarboxamide] reads 251 to 1000 nM; that for `Cc1cc(-c2c[nH]c(C(=O)Nc3cccc(F)c3N3CCC(C(=O)N4CC5CC4CO5)CC3)n2)ccn1` (centres unmarked) [Compound 79, N-[3-fluoro-2-[4-(2-oxa-5-azabicyclo[2.2.1]hept-5-ylcarbonyl)-1-piperidinyl]phenyl]-4-(2-methyl-4-pyridinyl)-1H-imidazole-2-carboxamide], 1000 to 5000 nM.

Still in this assay, the particulars now being: Table 10; compounds 97-132.
As for `CNc1nc(-c2c[nH]c(C(=O)Nc3cccc(F)c3N3CCC(CN)CC3)n2)cc(N2CCC(CN)CC2)n1` [Compound 125, 4-(6-(4-(aminomethyl)piperidin-1-yl)-2-(methylamino)pyrimidin-4-yl)-N-(2-(4-(aminomethyl)piperidin-1-yl)-3-fluorophenyl)-1H-imidazole-2-carboxamide], the IC50 was in the range of 1 to 50 nM. Same read-out and setting: the result for `CNc1nc(-c2c[nH]c(C(=O)Nc3cccc(F)c3N3CCC4(CC3)CNC4)n2)cc(N2CC(C(=O)NC3CCCCC3)CCC2C)n1` (racemic) [Compound 118, N-cyclohexyl-1-(6-(2-(3-fluoro-2-(2,7-diazaspiro[3.5]nonan-7-yl)phenylcarbamoyl)-1H-imidazol-4-yl)-2-(methylamino)pyrimidin-4-yl)-6-methylpiperidine-3-carboxamide] reads 1 to 50 nM; that for `CNc1nc(-c2c[nH]c(C(=O)Nc3cccc(F)c3N3CCC(CN)CC3)n2)cc(N2CCOC[C@H]2C)n1` [Compound 121, (R)—N-(2-(4-(aminomethyl)piperidin-1-yl)-3-fluorophenyl)-4-(2-(methylamino)-6-(3-methylmorpholino)pyrimidin-4-yl)-1H-imidazole-2-carboxamide], 1 to 50 nM. On the same count and under the same terms, with `CNc1nc(-c2c[nH]c(C(=O)Nc3cccc(F)c3N3CCOCC3)n2)cc(N2CC(C(=O)NC3CCCCC3)CCC2C)n1` (racemic) [Compound 109, N-cyclohexyl-1-(6-(2-(3-fluoro-2-morpholinophenylcarbamoyl)-1H-imidazol-4-yl)-2-(methylamino)pyrimidin-4-yl)-6-methylpiperidine-3-carboxamide] the figure was 1 to 50 nM.

On to `CNc1nc(-c2c[nH]c(C(=O)Nc3cccc(F)c3N3CCC(CN)CC3)n2)cc(N2C[C@H](C(=O)NC3CCCCC3)CC[C@@H]2C)n1` [Compound 116, (3R,6S)-1-(6-(2-(2-(4-(aminomethyl)piperidin-1-yl)-3-fluorophenylcarbamoyl)-1H-imidazol-4-yl)-2-(methylamino)pyrimidin-4-yl)-N-cyclohexyl-6-methylpiperidine-3-carboxamide], for which the IC50 lay within 1 to 50 nM. The same measure, in the same setting: the result for `CNc1nc(-c2c[nH]c(C(=O)Nc3cccc(F)c3N3CCC(CN)CC3)n2)cc(N2CCN[C@@H](C)C2)n1` [Compound 124, (S)—N-(2-(4-(aminomethyl)piperidin-1-yl)-3-fluorophenyl)-4-(2-(methylamino)-6-(3-methylpiperazin-1-yl)pyrimidin-4-yl)-1H-imidazole-2-carboxamide] reads 1 to 50 nM; that for `CNc1nc(-c2c[nH]c(C(=O)Nc3ccccc3N3CCNCC3)n2)cc(N2CCOC(C(=O)NC3CCCCC3)C2)n1` (centres unmarked) [Compound 106, N-cyclohexyl-4-(2-(methylamino)-6-(2-(2-(piperazin-1-yl)phenylcarbamoyl)-1H-imidazol-4-yl)pyrimidin-4-yl)morpholine-2-carboxamide], 51 to 250 nM.
